Key:
JURKAT cells [1] = assay: Inhibition of cell proliferation (Vi-cell counting); type: cell-based, human
Procedure: The rate of inhibition of cell proliferation is determined by dividing the difference between the proliferation rate of the unirradiated control cells and the proliferation rate of the irradiated cells by the proliferation rate of the unirradiated control cells, the rate of cell proliferation being determined by dividing the total number of final cells by the total number of starting cells. The rate of inhibition of proliferation was determined 3 days after irradiation and after the cells had been cultured.
(§1) To monitor the parameters of interest (apoptosis and inhibition of JURKAT proliferation), the cells were cultured using cell counting. To do this, 5.10^6 treated cells and 5.10^6 untreated cells were seeded in 10 ml of culture medium.
The initial JURKAT population was 5.10^6 cells per culture flask. The number of cells per culture flask was then counted by Vi-cell.
To do this, the culture medium with the cells was centrifuged at 1500 rpm for 5 minutes and the pellet was resuspended in supplemented RPMI culture medium. Depending on the cell density, a 1/10 dilution in PBS could be performed.
The percentage inhibition of cell proliferation on day n (Dn) was determined by the following formula:
% PI(Dn)=100−% P(Dn) [Math. 2]
in which % P(Dn) is the cell proliferation rate at n days, determined by the following formula: […]

JURKAT cells [2] = assay: Apoptosis test (annexin-V FITC / propidium iodide flow cytometry), delta-apoptosis; type: cell-based, human
Procedure: To obtain the desired quantity of JURKAT cells, they were cultured in an RPMI 1640 medium supplemented with foetal calf serum (10% v/v), 1% L-glutamine (Lonza) and 1% penicillin-streptomycin (Lonza). Cells were grown in culture flasks placed in an incubator at 37° C. and 5% CO2. The JURKAT doubling time was approximately 27 hours.
The cells were suspended in a solution of PBS (phosphate buffer saline) or in a 2% haematocrit solution comprising 1/14 of the anticoagulant ACD-A, a 50/50 v/v mixture of NaCl and plasma. The final volume was such that the thickness of the cell suspension in the container was around 3 mm.
In the case of UVA irradiation, the cell solution also contained 200 ng/ ml or 333° ng/ml of 8-MOP.
At the end of the irradiation step, the cell solutions with a haematocrit level of 2% are washed in order to recover as many JURKAT cells as possible for culture with low contamination by red blood cells. To do this, the components were separated by density gradient using a Ficoll solution (GE Healthcare).
After JURKAT isolation, the cells were washed three times to remove the Ficoll solution. The first two washes were performed in a PBS solution with 2 mM EDTA (Thermo Fisher), and the third was performed in a PBS solution. The cells were then re-suspended in supplemented RPMI medium and counted using Vi-cell and ABX in order to estimate the number of JURKAT that had been isolated and to assess the quantity of residual red blood cells.
as §1
Apoptosis was studied by flow cytometry, using double labelling of cells with annexin-V coupled to a fluorophore FITC and propidium iodide (PI).
Delta-apoptosis was determined by the following formula:
Δapoptosis=(% apoptosis of treated cells−% apoptosis of untreated cells) [Math. 1]

[3] = JURKAT cells 330.10^6 in 300 ml, 2% haematocrit plasma/saline, 333 ng/ml 8-MOP, bag, Macogenic G2 (Maco Pharma ECP system)

COc1c2occc2cc2ccc(=O)oc12 [8-MOP, 8-methoxypsoralen]
UVA dose from which acceptance criterion in terms of proliferation inhibition was achieved (JURKAT cells [1]; [3]): ≥ 2 J/cm^2
UVA dose meeting the acceptance criterion in terms of inhibition of proliferation (JURKAT cells [1]; JURKAT cells in PBS, 200 ng/ml 8-MOP, Petri dish, BS02 irradiator, criterion inhibition >70% 3 days after irradiation): 0.13 J/cm^2
UVA dose at which acceptance criterion for rate of proliferation inhibition was reached (JURKAT cells [1]; JURKAT cells in plasma/saline 50/50, 2% haematocrit, 333 ng/ml 8-MOP, Petri dish, BS02 irradiator, D+3): 3 J/cm^2
UVA dose from which acceptance criterion in terms of delta-apoptosis was achieved (JURKAT cells [2]; [3]): ≥ 2 J/cm^2
UVA dose meeting the acceptance criterion in terms of delta-apoptosis (JURKAT cells [2]; JURKAT cells in PBS, 200 ng/ml 8-MOP, Petri dish, BS02 irradiator, criterion delta-apoptosis 30-40% one day, 50-60% two days after irradiation): 0.13 J/cm^2
rate of cell necrosis (JURKAT cells [2]; JURKAT cells in PBS, 200 ng/ml 8-MOP, all doses of UVA radiation tested (0.03-0.4 J/cm^2)): below 1%
equivalent UVA dose (sigmoidal model of delta-apoptosis), BS02 irradiator (JURKAT cells [2]; JURKAT cells in plasma, 333 ng/ml 8-MOP, BS02 irradiator in UVA): 4 J/cm^2
equivalent UVA dose (sigmoidal model of delta-apoptosis), Macogenic G2 (JURKAT cells [2]; JURKAT cells in plasma, 333 ng/ml 8-MOP, delivered with Macogenic G2): 2.1 J/cm^2
UVA dose at which acceptance criterion for delta-apoptosis was reached (JURKAT cells [2]; JURKAT cells in plasma/saline 50/50, 2% haematocrit, 333 ng/ml 8-MOP, Petri dish, BS02 irradiator): 4 J/cm^2

From patent US20240189615A1, “METHOD AND SYSTEM FOR PRODUCING APOPTOTIC MONONUCLEAR CELLS” (MACO PHARMA, priority 2020, published 2024)
